Reference: patent US20190374533A1, “COMPOUNDS AND METHODS FOR INHIBITING NHE-MEDIATED ANTIPORT IN THE TREATMENT OF DISORDERS ASSOCIATED WITH FLUID RETENTION OR SALT OVERLOAD AND GASTROINTESTINAL TRACT DISORDERS” (Ardelyx, Inc., priority 2008, published 2019)
Where a name gives a salt, the structure may show the parent alone.

Experiments:
[1] = tested on: absorption of sodium from the intestinal lumen; experiment: Inhibition of intestinal sodium absorption in mice; type: in vivo, mouse; conditions: CD-1 mice, 15 mg/kg oral gavage twice daily for 3 days
[2] = tested on: absorption of sodium from the intestinal lumen; experiment: Inhibition of intestinal sodium absorption in rats; type: in vivo, rat; conditions: Sprague Dawley rats, 0.1 mg/kg oral gavage, 13-hours post-dose
Description: Urinary sodium excretion and fecal form were measured to assess the ability of selected example compounds to inhibit the absorption of sodium from the intestinal lumen. Eight-week old, male, Sprague Dawley rats were purchased from Envigo (Livermore, Calif.), were housed 2 per cage and acclimated for at least 48 hours before study initiation. Animals were fed Harlan Teklad Global TD.160470 rodent chow (Maddison, Wis.), standard laboratory rodent chow Harlan Teklad Global 2018 with the addition of 0.4% inorganic phosphorous. […] At 13-hours post-dose, urine samples were collected and fecal form was assessed. In addition, the weight of food consumed over the 13-hour period was measured and recorded. Fecal forms were scored according to a common scale associated with increasing fecal water to the wettest observation in the cage's collection funnel (1, normal pellet; 2, pellet adhering to sides of collection funnel due to moisture; 3, loss of normal pellet shape: 4, complete loss of shape with a blotting pattern; 5, liquid fecal streams evident). Fecal form score (FFS) was calculated for each group as the median of each individual rat's FFS within the group and reported in Table 12. Fecal samples were dried using a lyophilizer for at least 3 days, following which dry weight was recorded and fecal fluid content was calculated based on the difference between the wet and dry stool weights. […]

NHE3 = molecular target: T1, NHE3 (Homo sapiens, UniProt P48764); experiment: Sustained inhibition of apical acid secretion in human organoid monolayer cell cultures (duodenum); type: cell-based; conditions: 1 μM apical
T1 construct: due to the increase in NHE3 expression after differentiation; endogenous in cells; host or cells: human ileum / duodenum organoid-derived monolayers
T1 sequence (P48764 26-834): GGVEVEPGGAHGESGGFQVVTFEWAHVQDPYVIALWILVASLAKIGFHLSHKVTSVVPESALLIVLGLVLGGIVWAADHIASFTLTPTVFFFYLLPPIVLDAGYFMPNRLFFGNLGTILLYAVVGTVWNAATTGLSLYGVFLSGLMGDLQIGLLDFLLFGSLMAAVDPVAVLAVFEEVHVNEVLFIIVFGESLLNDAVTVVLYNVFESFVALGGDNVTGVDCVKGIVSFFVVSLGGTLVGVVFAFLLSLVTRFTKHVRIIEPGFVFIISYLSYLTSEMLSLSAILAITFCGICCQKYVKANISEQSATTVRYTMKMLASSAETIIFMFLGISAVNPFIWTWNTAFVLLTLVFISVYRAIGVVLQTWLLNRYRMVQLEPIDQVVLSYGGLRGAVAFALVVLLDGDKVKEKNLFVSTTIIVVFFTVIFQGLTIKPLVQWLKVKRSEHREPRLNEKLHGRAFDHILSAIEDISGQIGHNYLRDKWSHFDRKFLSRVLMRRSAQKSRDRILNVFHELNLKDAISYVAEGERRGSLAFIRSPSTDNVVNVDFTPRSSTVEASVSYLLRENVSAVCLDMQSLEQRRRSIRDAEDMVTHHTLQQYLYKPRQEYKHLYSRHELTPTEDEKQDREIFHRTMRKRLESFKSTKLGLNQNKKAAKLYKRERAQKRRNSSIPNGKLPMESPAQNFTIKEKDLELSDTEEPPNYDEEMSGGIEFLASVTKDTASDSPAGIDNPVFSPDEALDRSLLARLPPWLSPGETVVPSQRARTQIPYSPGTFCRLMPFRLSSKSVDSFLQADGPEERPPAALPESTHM

[3] = tested on: human duodenum monolayer culture; experiment: Increased trans-epithelial resistance (TEER) in human organoid monolayer cell cultures; type: cell-based; conditions: 1 μM apical, baseline corrected
Description: Transwells were 0.4 μm pore polyester membrane 24-well Transwell inserts (Corning). Cultures were incubated at 37° C. in 5% CO2.
Human duodenum organoids were cultured in WENRNAS (Wnt, EGF, noggin, R-spondin1. Nicotinamide, A83-01, SB202190) and typically grown for 7-12 days before being used to plate monolayer cultures. On day 0, organoid cultures embedded in Matrigel were treated with TrypLE Express to break organoids into small pieces and/or single cells. The cells were resuspended to 0.5×10^6 cells/mL in SBM containing WENRAY (Wnt. EGF, noggin, R-spondin1, A83-01, Y-27632). Following this step, 200 μL of cell suspension was plated into the apical side of a 24-well Transwell (100,000 cells/well) and 600 μL of SBM with WENRAY was added to the basolateral side. Duodenum cells were differentiated with ENA (EGF, noggin, A83-01) on day 3. […]
Each human duodenum monolayer culture well was washed twice with fresh SBM on the apical side on day 6 or day 7 before dosing. […] Transepithelial electrical resistance (TEER) was used as a quantitative technique to measure of tight junction permeability. TEER values were recorded (MERS00002. Millipore) before dosing and 30 mins and 1 hr after dosing for all wells. […] Baseline corrected TEER for each example compound was compared to the average of the DMSO wells and expressed as a percent TEER of vehicle control.

[4] = tested on: gastrointestinal motility; experiment: Restoration of gastrointestinal motility in opioid induced constipation (loperamide); type: in vivo, mice; conditions: 15 mg/kg oral gavage, loperamide s.c., Evans Blue dye front after 30 minutes
[5] = day 3, normalized to dietary sodium intake

## CN1Cc2c(Cl)cc(Cl)cc2[C@H](c2cccc(S(=O)(=O)NCCOCCOCCNC(=O)Nc3ccc(NC(=O)NCCOCCOCCNS(=O)(=O)c4cccc([C@@H]5CN(C)Cc6c(Cl)cc(Cl)cc65)c4)cc3)c2)C1 (single isomer, unassigned) [Example 203, (S or R)—N,N′-(2,2′-(2,2′-(2,2′-(1,4-phenylenebis(azanediyl))bis(oxomethylene)bis(azanediyl)bis(ethane-2,1-diyl))bis(oxy)bis(ethane-2,1-diyl))bis(oxy)bis(ethane-2,1-diyl))bis(3-((S or R)-6,8-dichloro-2-methyl-1,2,3,4-tetrahydroisoquinolin-4-yl)benzenesulfonamide) bis-hydrochloride salt]
[1]; day 3
  Fecal fluid content (Δ from vehicle): C (>10)
[1]; [5]
  Fecal Na Excretion (% of vehicle): C (>200%)
  Urinary Na Excretion (% of vehicle): C (<50%)
[2]; normalized to dietary sodium intake
  Urinary Na (% of Vehicle, out/in): C (<40%)
[2]; fecal form score, group median
  FFS (1-5): 3

## CN1Cc2c(Cl)cc(Cl)cc2[C@H](c2cccc(S(=O)(=O)NCCOCCOCCNC(=O)NCCCCNC(=O)NCCOCCOCCNS(=O)(=O)c3cccc([C@@H]4CN(C)Cc5c(Cl)cc(Cl)cc54)c3)c2)C1 (single isomer, unassigned) [Example 202, (S or R)—N,N′-(10,17-dioxo-3,6,21,24-tetraoxa-9,11,16,18-tetraazahexacosane-1,26-diyl)bis(3-((S)-6,8-dichloro-2-methyl-1,2,3,4-tetrahydroisoquinolin-4-yl)benzenesulfonamide) bis-hydrochloride salt]
NHE3
  % inhibition (duodenum): C (>70%)
[3]; 30 mins after dosing
  TEER at 30 minutes (% of Vehicle): B (100-130%)
[3]; 1 hr after dosing
  TEER at 60 minues (% of Vehicle): B (100-130%)
[4]
  % Restoration of Transit: C (>40%)
